Measured values from ChEMBL document CHEMBL6074641, “Polypharmacological Drug Design Guided by Integrating Phenotypic and Restricted Fragment Docking Strategies” (J Med Chem, 2024).
Active and inactive are the calls of the source. No cut-off for these calls is given here.

Experiments:
[1] = AUC(0 to t) in C57BL/6 mouse brain at 10 mg/kg, po measured upto 24 hrs by LC-MS/MS analysis; type: ADME, organism-based
BV-2 [2] = test: Anti-necroptosis activity in mouse BV-2 cells at 10 uM preincubated with LPS for 11 hrs followed by compound addition for 1 hr and exposed to zVAD-fmk for another 24 hrs by Cellcounting-Lite 2.0 luminescent cell viability assay; type: functional, cell-based; conditions: time 25.0 hrs
Cytochrome P450 2C19 = Cytochrome P450 2C19 (Homo sapiens, UniProt P33261); test: Inhibition of CYP2C19 (unknown origin) using S-mephenytoin as substrate incubated for 10 mins in presence of NADPH by LC-MS/MS analysis; type: ADME
Microglia [3] = test: Anti-necroptosis activity in LPS/zVAD stimulated mouse primary microglia assessed as reversal of mitochondrial swelling by TEM analysis; type: functional, cell-based
Mus musculus [4] = test: Downregulation of ALK phosphorylation in 3xTg mouse hippocampus at 2 to 10 mg/kg, po by immunohistochemistry analysis; type: functional, organism-based; conditions: dose 2-10 mg/kg
[5] = Tmax in C57BL/6 mouse brain at 10 mg/kg, po measured upto 24 hrs by LC-MS/MS analysis; type: ADME, organism-based
Cytochrome P450 1A2 = Cytochrome P450 1A2 (Homo sapiens, UniProt P05177); test: Inhibition of CYP1A2 (unknown origin) using phenacetin as substrate incubated for 10 mins in presence of NADPH by LC-MS/MS analysis; type: ADME
Microglia [6] = test: Anti-necroptosis activity in LPS/zVAD stimulated mouse primary microglia overexpressed with RIPK1 assessed as reversal of mitochondrial swelling by TEM analysis; type: functional, cell-based
Mus musculus [7] = test: Anti-alzheimer activity against 5 month old APP/PS1 transgenic mouse model assessed as decrease in restlessness at 2 to 10 mg/kg, po administered 4 times per week for 4 weeks; type: functional, organism-based; conditions: dose 2-10 mg/kg
BV-2 [8] = test: Anti-necroptosis activity in mouse BV-2 cells assessed as reduction in p65 expression at 100 nM by confocal microscopic analysis; type: functional, cell-based
BV-2 [9] = test: Inhibition of MLKL activation in mouse BV-2 cells by Western blotting analysis; type: cell-based; conditions: dose 4-100 nM
Mus musculus [10] = test: Anti-alzheimer activity against 8 month old 3xTg mouse model assessed as improved spatial preference towards annulus at 10 mg/kg, po administered 4 times per week for 4 weeks; type: functional, organism-based
[11] = Tmax in C57BL/6 mouse plasma at 10 mg/kg, po measured upto 24 hrs by LC-MS/MS analysis; type: ADME, organism-based
BV-2 [12] = test: Cytotoxicity against mouse BV-2 cells at 10 uM; type: toxicity, cell-based; conditions: bv-2, 10 µM
Mus musculus [13] = test: Anti-alzheimer activity against 8 month old 3xTg mouse model assessed as improved learning ability at 2 to 10 mg/kg, po administered 4 times per week for 4 weeks; type: functional, organism-based; conditions: dose 2-10 mg/kg
[14] = molecular target: T1, ALK tyrosine kinase receptor (Homo sapiens, UniProt Q9UM73); test: Inhibition of recombinant ALK (1060 to end residues) (unknown origin) expressed in Escherichia coli […] using IGF1Rtide as substrate preincubated for 15 mins followed by substrate and ATP addition and measured after 90 mins by ADP-Glo luminescence […] assay
Target sequence in this assay (Q9UM73 whole entry): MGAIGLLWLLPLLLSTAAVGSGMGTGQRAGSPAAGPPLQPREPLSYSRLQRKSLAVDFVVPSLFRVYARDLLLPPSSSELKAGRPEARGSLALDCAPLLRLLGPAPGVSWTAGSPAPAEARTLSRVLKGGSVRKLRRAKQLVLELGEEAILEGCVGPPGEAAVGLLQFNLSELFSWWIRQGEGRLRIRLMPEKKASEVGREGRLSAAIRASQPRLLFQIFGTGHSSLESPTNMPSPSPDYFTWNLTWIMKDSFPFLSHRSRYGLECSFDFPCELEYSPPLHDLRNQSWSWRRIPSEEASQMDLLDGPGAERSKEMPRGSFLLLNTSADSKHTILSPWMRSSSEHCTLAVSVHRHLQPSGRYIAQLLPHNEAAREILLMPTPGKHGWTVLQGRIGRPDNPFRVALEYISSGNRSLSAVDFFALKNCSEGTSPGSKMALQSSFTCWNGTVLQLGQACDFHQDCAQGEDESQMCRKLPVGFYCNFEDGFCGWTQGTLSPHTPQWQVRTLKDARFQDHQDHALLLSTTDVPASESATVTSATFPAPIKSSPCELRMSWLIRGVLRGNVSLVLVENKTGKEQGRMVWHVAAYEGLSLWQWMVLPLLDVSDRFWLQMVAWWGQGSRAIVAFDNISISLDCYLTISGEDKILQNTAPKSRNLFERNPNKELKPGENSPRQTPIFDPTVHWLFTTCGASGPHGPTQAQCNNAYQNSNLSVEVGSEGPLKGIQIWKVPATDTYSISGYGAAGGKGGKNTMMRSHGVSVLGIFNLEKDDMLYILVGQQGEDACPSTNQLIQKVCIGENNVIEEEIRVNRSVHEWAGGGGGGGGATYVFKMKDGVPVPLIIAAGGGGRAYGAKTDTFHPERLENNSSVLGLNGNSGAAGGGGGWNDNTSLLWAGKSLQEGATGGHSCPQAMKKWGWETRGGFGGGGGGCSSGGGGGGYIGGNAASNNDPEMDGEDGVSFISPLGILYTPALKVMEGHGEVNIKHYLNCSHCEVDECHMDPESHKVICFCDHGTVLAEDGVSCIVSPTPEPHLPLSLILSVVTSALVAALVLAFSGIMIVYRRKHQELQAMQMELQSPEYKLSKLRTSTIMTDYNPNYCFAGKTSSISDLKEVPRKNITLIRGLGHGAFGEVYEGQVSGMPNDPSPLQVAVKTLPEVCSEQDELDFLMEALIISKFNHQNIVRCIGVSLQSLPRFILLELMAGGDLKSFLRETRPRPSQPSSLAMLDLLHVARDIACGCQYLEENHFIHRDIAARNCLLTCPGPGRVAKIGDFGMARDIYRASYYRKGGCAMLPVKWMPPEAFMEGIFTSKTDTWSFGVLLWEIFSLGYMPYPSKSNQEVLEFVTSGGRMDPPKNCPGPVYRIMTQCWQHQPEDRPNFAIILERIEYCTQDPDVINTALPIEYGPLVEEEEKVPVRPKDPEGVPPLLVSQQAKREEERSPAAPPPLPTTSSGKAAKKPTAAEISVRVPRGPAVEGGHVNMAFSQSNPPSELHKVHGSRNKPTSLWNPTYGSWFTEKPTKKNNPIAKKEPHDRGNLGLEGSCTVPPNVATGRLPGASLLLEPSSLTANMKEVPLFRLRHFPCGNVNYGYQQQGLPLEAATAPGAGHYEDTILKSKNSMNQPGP

Mus musculus [15] = test: Anti-alzheimer activity against 8 month old 3xTg mouse model assessed as increase in beta-III tubulin expression at 10 mg/kg, po; type: functional, organism-based
[16] = AUC(0 to t) in C57BL/6 mouse plasma at 10 mg/kg, po measured upto 24 hrs by LC-MS/MS analysis; type: ADME, organism-based
[17] = Anti-necroptosis activity in LPS/zVAD stimulated mouse primary microglia assessed as protection of microglia cells at 100 nM; type: functional
Microglia [18] = test: Anti-necroptosis activity in LPS/zVAD stimulated mouse primary microglia overexpressed with MAP4K4 assessed as reversal of mitochondrial swelling by TEM analysis; type: functional, cell-based
Microglia [19] = test: Anti-necroptosis activity in LPS/zVAD stimulated mouse primary microglia transfected with Myc-tagged ALK plasmid assessed as protection of microglia cells at 100 nM; type: functional, cell-based
Microglia [20] = test: Anti-necroptosis activity in LPS/zVAD stimulated mouse primary microglia transfected with HA-tagged MAP4K4 plasmid assessed as protection of microglia cells at 100 nM; type: functional, cell-based
[21] = Cmax in C57BL/6 mouse brain at 10 mg/kg, po measured upto 24 hrs by LC-MS/MS analysis; type: ADME, organism-based
Mus musculus [22] = test: Downregulation of RIPK1 phosphorylation in 3xTg mouse hippocampus at 2 to 10 mg/kg, po by immunohistochemistry analysis; type: functional, organism-based; conditions: dose 2-10 mg/kg
Cytochrome P450 2C8 = Cytochrome P450 2C8 (Homo sapiens, UniProt P10632); test: Inhibition of CYP2C8 (unknown origin) incubated for 10 mins in presence of NADPH by LC-MS/MS analysis; type: ADME
[23] = Unbound plasma protein binding in mouse incubated for 24 hrs by HPLC based equilibrium dialysis method; type: ADME, cell-free
Microglia [24] = test: Anti-necroptosis activity in LPS/zVAD stimulated mouse primary microglia assessed as reversal of severe membrane disruption by TEM analysis; type: functional, cell-based
[25] = molecular target: T1, ALK tyrosine kinase receptor; test: Inhibition of ALK (unknown origin) at 1 uM
[26] = molecular target: Receptor-interacting serine/threonine-protein kinase 1 (Mus musculus) (UniProt Q60855); test: Inhibition of RIPK1 activation in mouse BV-2 cells by Western blotting analysis; type: cell-based; conditions: dose 4-100 nM
[27] = Metabolic stability in human liver microsomes assessed as clearance at 1 uM measured upto 60 mins in presence of NADPH and UDPGA by LC-MS/MS analysis; type: ADME, Microsome; conditions: 1 h
Microglia [28] = test: Anti-necroptosis activity in LPS/zVAD stimulated mouse primary microglia overexpressed with ALK assessed as reversal of translucent cytoplasm by TEM analysis; type: functional, cell-based
Microglia [29] = test: Anti-necroptosis activity in LPS/zVAD stimulated mouse primary microglia assessed as reversal of translucent cytoplasm by TEM analysis; type: functional, cell-based
Mus musculus [30] = test: Anti-alzheimer activity against 8 month old 3xTg mouse model assessed as improved cognitive ability at 2 mg/kg, po administered 4 times per week for 4 weeks; type: functional, organism-based
Mus musculus [31] = test: Anti-alzheimer activity against 5 month old APP/PS1 transgenic mouse model assessed as […] at 10 mg/kg, po administered 4 times per week for 4 weeks measured after 2 days; type: functional, organism-based; conditions: time 30.0 day
Mus musculus [32] = test: Anti-alzheimer activity in 8 month old 3xTg mouse model assessed as reversal of transcriptomic changes in Hba-a1 at 10 mg/kg, po; type: functional, organism-based
Mus musculus [33] = test: Anti-alzheimer activity in 8 month old 3xTg mouse model assessed as reversal of transcriptomic changes in Lamc2 at 10 mg/kg, po; type: functional, organism-based
Cytochrome P450 2D6 = Cytochrome P450 2D6 (Homo sapiens, UniProt P10635); test: Inhibition of CYP2D6 (unknown origin) using dextromethorphan as substrate incubated for 10 mins in presence of NADPH by LC-MS/MS analysis; type: ADME
[34] = molecular target: Mitogen-activated protein kinase kinase kinase kinase 4 (Homo sapiens, UniProt O95819); test: Inhibition of MAP4K4 (unknown origin) at 1 uM
Mus musculus [35] = test: Anti-alzheimer activity against 5 month old APP/PS1 transgenic mouse model assessed as decrease in anxiety level at 2 to 10 mg/kg, po administered 4 times per week for 4 weeks; type: functional, organism-based; conditions: dose 2-10 mg/kg
Mus musculus [36] = test: Anti-alzheimer activity against 8 month old 3xTg mouse model assessed as increase in searching frequency towards annulus at 10 mg/kg, po administered 4 times per week for 4 weeks; type: functional, organism-based

Chain of Cytochrome P450 2C19 (P33261 whole entry): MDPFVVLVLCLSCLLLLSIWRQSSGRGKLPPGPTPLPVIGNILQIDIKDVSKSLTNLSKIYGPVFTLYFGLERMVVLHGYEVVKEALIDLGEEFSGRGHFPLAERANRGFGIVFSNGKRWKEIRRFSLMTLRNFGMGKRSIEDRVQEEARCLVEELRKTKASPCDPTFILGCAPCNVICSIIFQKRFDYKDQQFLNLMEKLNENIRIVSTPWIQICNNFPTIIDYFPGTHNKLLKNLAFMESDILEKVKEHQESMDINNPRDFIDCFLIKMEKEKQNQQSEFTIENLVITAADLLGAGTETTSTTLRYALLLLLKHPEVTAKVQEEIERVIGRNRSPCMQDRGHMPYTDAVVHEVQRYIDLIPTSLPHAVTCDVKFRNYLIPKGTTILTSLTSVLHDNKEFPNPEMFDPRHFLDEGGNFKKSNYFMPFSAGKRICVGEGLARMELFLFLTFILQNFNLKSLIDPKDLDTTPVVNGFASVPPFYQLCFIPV
Chain of Cytochrome P450 2C8 (P10632 whole entry): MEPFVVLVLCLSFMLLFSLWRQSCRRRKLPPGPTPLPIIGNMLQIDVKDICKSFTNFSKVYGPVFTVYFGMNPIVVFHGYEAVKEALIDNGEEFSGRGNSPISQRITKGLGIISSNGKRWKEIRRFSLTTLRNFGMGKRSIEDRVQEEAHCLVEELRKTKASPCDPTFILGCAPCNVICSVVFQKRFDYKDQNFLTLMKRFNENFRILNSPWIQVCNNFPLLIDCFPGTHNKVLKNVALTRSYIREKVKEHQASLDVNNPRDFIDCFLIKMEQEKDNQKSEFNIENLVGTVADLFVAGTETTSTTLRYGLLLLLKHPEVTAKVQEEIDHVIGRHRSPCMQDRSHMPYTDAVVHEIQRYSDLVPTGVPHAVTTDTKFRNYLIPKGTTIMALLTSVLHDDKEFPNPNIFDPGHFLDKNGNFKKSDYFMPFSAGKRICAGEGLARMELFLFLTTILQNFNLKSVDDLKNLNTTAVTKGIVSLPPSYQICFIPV
Chain of Cytochrome P450 2D6 (P10635 whole entry): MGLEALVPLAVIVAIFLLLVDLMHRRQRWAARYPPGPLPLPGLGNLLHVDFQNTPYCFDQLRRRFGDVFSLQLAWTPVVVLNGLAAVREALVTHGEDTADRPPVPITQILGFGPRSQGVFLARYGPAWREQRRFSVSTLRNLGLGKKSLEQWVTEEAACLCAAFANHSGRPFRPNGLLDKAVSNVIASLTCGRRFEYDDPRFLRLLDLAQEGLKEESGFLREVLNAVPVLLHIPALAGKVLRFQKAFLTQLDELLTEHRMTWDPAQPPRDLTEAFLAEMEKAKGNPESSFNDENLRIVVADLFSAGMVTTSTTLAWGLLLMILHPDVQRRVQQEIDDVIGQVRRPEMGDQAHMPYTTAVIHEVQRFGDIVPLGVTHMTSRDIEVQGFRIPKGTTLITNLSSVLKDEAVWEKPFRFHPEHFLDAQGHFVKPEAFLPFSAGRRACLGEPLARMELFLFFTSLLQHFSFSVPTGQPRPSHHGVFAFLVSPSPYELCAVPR
Chain of Mitogen-activated protein kinase kinase kinase kinase 4 (O95819 2-1239 limits assumed): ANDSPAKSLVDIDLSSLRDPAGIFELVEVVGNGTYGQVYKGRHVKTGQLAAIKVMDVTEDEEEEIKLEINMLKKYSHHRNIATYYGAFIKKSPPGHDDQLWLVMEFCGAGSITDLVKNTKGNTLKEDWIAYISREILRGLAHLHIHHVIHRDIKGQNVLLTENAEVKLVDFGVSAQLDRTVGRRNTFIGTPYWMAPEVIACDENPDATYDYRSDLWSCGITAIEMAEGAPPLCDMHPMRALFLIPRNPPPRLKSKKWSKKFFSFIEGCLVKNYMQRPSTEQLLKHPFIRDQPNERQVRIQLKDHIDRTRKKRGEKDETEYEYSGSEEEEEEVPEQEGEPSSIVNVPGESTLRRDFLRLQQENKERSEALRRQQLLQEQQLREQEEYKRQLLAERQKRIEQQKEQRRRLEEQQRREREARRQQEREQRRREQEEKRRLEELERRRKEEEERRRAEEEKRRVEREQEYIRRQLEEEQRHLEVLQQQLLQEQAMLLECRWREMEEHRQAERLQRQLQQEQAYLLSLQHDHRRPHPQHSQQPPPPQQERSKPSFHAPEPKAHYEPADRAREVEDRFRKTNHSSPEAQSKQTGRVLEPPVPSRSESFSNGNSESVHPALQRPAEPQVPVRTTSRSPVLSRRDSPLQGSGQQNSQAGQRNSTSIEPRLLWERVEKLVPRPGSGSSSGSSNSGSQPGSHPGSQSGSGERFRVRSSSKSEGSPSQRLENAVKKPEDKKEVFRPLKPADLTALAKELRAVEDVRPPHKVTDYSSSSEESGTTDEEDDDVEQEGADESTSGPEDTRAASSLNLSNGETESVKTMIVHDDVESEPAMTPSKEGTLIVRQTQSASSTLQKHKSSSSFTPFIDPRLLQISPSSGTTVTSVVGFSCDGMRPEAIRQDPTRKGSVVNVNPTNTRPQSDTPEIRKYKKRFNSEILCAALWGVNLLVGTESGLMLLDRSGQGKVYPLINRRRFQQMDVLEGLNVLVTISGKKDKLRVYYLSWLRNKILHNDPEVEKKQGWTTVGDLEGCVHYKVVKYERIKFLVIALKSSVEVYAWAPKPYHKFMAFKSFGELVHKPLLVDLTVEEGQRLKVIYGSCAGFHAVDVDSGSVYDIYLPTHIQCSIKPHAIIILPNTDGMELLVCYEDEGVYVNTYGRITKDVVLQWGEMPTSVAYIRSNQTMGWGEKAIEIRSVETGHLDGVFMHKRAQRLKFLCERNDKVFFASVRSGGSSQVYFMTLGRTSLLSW
Chain of Receptor-interacting serine/threonine-protein kinase 1 (Mus musculus) (Q60855 whole entry): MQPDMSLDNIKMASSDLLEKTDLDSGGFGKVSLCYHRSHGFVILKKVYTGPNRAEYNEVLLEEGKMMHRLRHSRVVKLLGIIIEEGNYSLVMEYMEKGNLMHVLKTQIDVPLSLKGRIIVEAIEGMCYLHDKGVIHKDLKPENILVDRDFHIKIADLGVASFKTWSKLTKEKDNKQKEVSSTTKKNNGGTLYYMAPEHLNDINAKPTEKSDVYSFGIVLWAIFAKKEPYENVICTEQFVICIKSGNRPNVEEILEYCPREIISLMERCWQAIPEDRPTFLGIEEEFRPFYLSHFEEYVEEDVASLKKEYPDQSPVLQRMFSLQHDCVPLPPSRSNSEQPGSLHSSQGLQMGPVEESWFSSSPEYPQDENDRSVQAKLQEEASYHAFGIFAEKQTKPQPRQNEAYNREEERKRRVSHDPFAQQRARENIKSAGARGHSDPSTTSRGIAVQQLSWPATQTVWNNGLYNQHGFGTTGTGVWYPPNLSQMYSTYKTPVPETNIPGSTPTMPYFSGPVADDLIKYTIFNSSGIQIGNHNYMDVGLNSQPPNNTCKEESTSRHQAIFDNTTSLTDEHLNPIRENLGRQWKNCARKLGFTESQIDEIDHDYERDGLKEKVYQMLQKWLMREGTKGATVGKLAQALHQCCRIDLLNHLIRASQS

For `Cc1cc(F)cc(Nc2ncc(Nc3ccc(SC(F)(F)F)cc3)cc2C(N)=O)c1`, the AUC(0-t) at 24 h [1] was 2970 ng·h/mL, the Activity (BV-2 [2]) was “Active” and the IC50 (Cytochrome P450 2C19) was 8.3 µM. For the same molecule, the Activity (Microglia [3]) was “Active”, the Activity (Mus musculus [4]) was “Active; Activity More Potent Than Nec-1” and the Tmax [5] was 5.97 h. The IC50 (Cytochrome P450 1A2) was > 10 µM, the Activity (Microglia [6]) was “inactive” and the Activity (Mus musculus [7]) was “Active”. The Activity (BV-2 [8]) was “Active”, the inhibition (BV-2 [9]) was “Dose-dependent-effect” and the Activity (Mus musculus [10]) was “Active”. The Tmax [11] was 2.93 h, the Activity (BV-2 [12]) was “Toxic” and the Activity (Mus musculus [13]) was “Active”. The IC50 [14] was 0.62 µM, the Activity (Mus musculus [15]) was “Active” and the AUC(0-t) at 24 h [16] was 10900 ng·h/mL. The Activity [17] was 100%, the Activity (Microglia [18]) was “inactive” and the Activity (Microglia [19]) was “inactive”. For the same molecule, the Activity (Microglia [20]) was “inactive”, the Cmax [21] was 290 ng/mL and the Activity (Mus musculus [22]) was “Active; Activity More Potent Than Nec-1”. For the same molecule, the IC50 (Cytochrome P450 2C8) was 6.8 µM, the Fu [23] was 0.8% and the Activity (Microglia [24]) was “Active”. For the same molecule, the inhibition [25] was “Active”, the inhibition [26] was “Dose-dependent-effect” and the CLH [27] was 7 µL/min/mg. For the same molecule, the Activity (Microglia [28]) was “inactive”, the Activity (Microglia [29]) was “Active” and the Activity (Mus musculus [30]) was “Active; Activity More Potent Than Nec-1”. The Activity (Mus musculus [31]) was “Active”, the Activity (Mus musculus [32]) was “Active” and the Activity (Mus musculus [33]) was “Active”. For the same molecule, the IC50 (Cytochrome P450 2D6) was > 10 µM, the inhibition [34] was “Active” and the Activity (Mus musculus [35]) was “Active”. For the same molecule, the Activity (Mus musculus [36]) was “Active”.
